This passage reports TD50 and carcinogen call results from PubChem BioAssay AID1745844 (Carcinogenic Potency Database (CPDB), 2022).

For this series, the system named is rodent lifetime carcinogenesis bioassay, tumor incidence TD50. In words: carcinogenic potency in animals, long-term in vivo studies, CPDB compilation (AID 1745844).

Molecules are shown by their SMILES. The source made the active and inactive calls. The rule behind the calls is not given here.

With `CC(=O)O[C@]1(C(C)=O)CC[C@H]2[C@@H]3C=C(Cl)C4=CC(=O)[C@@H]5C[C@@H]5[C@]4(C)[C@H]3CC[C@@]21C`, the TD50 (mouse, strain C57BL/10J, females, in feed, site: liver, lesion: hepatocellular adenoma, dosed 97 weeks, study length 97 weeks) came to 1120 mg/kg/day; the TD50 (mouse, strain C57BL/10J, females, in feed, site: liver, lesion: hepatocellular carcinoma, dosed 97 weeks, study length 97 weeks) was 254 mg/kg/day; the TD50 (mouse, strain C57BL/10J, females, in feed, site: liver, lesion: several types, types named in the paper, dosed 97 weeks, study length 97 weeks) is 254 mg/kg/day; the TD50 (mouse, strain C57BL/10J, females, in feed, site: pylorus, lesion: adenomatous polyp, dosed 97 weeks, study length 97 weeks) was 16.8 mg/kg/day; the TD50 (mouse, strain C57BL/10J, males, in feed, site: liver, lesion: hepatocellular adenoma, dosed 104 weeks, study length 104 weeks) was 333 mg/kg/day; the TD50 (mouse, strain C57BL/10J, males, in feed, site: liver, lesion: hepatocellular carcinoma, dosed 104 weeks, study length 104 weeks) is 179 mg/kg/day. Further, the TD50 reads like this: (mouse, strain C57BL/10J, males, in feed, site: liver, lesion: several types, types named in the paper, dosed 104 weeks, study length 104 weeks) 115 mg/kg/day; (mouse, strain C57BL/10J, males, in feed, site: pylorus, lesion: adenomatous polyp, dosed 104 weeks, study length 104 weeks) 31.6 mg/kg/day.
In the case of `CC(C)N(C(=O)SCC(Cl)=CCl)C(C)C`, the TD50 is, setting by setting: (mouse, strain B6AKF1, females, oral dosing, site: any site (literature study), lesion: several types, types named in the paper, dosed 85 weeks, study length 85 weeks) 1990 mg/kg/day; (mouse, strain B6AKF1, females, oral dosing, site: liver, lesion: hepatoma, dosed 85 weeks, study length 85 weeks) 516 mg/kg/day; (mouse, strain B6AKF1, females, oral dosing, site: lung, lesion: adenoma, dosed 85 weeks, study length 85 weeks) 4260 mg/kg/day; (mouse, strain B6AKF1, males, oral dosing, site: any site (literature study), lesion: several types, types named in the paper, dosed 84 weeks, study length 84 weeks) 35.4 mg/kg/day; (mouse, strain B6AKF1, males, oral dosing, site: liver, lesion: hepatoma, dosed 84 weeks, study length 84 weeks) 43 mg/kg/day; (mouse, strain B6AKF1, males, oral dosing, site: lung, lesion: adenoma, dosed 84 weeks, study length 84 weeks) 243 mg/kg/day. The TD50 by setting is: (mouse, strain B6C3F1, females, oral dosing, site: any site (literature study), lesion: several types, types named in the paper, dosed 83 weeks, study length 83 weeks) 90.8 mg/kg/day; (mouse, strain B6C3F1, females, oral dosing, site: liver, lesion: several types, types named in the paper, dosed 83 weeks, study length 83 weeks) 164 mg/kg/day; (mouse, strain B6C3F1, females, oral dosing, site: lung, lesion: adenoma, dosed 83 weeks, study length 83 weeks) 255 mg/kg/day; (mouse, strain B6C3F1, males, oral dosing, site: any site (literature study), lesion: several types, types named in the paper, dosed 84 weeks, study length 84 weeks) 15.6 mg/kg/day; (mouse, strain B6C3F1, males, oral dosing, site: liver, lesion: hepatoma, dosed 84 weeks, study length 84 weeks) 19.4 mg/kg/day; (mouse, strain B6C3F1, males, oral dosing, site: lung, lesion: adenoma, dosed 84 weeks, study length 84 weeks) 113 mg/kg/day.
For the compound `CCN(N)C=O`, the TD50 reads like this: (mouse, strain Swiss albino, females, in drinking water, site: blood vessels, lesion: several types, types named in the paper, dosed 61 weeks, study length 61 weeks) 2.49 mg/kg/day; (mouse, strain Swiss albino, females, in drinking water, site: lung, lesion: several types, types named in the paper, dosed 61 weeks, study length 61 weeks) 2.52 mg/kg/day; (mouse, strain Swiss albino, males, in drinking water, site: blood vessels, lesion: several types, types named in the paper, dosed 60 weeks, study length 60 weeks) 3.55 mg/kg/day; (mouse, strain Swiss albino, males, in drinking water, site: gall bladder, lesion: several types, types named in the paper, dosed 60 weeks, study length 60 weeks) 47.4 mg/kg/day; (mouse, strain Swiss albino, males, in drinking water, site: liver, lesion: several types, types named in the paper, dosed 60 weeks, study length 60 weeks) 17.7 mg/kg/day; (mouse, strain Swiss albino, males, in drinking water, site: lung, lesion: several types, types named in the paper, dosed 60 weeks, study length 60 weeks) 3.19 mg/kg/day. For the same compound, under “mouse, strain Swiss albino, males, in drinking water, site: preputial gland, lesion: several types, types named in the paper, dosed 60 weeks, study length 60 weeks”, the TD50 is 50.8 mg/kg/day.
As for `CN=C(NC#N)NCCSCc1nc[nH]c1C`, the TD50 (mouse, strain C57BL/6, females, in drinking water, site: liver, lesion: several types, types named in the paper, dosed 126 weeks, study length 126 weeks) was 52200 mg/kg/day (inactive). For the same compound, the carcinogen call (mouse, strain C57BL/6, females, in drinking water, site: lung, lesion: one or several types, types not named, dosed 126 weeks, study length 126 weeks) is “negative (inactive)”; the carcinogen call (rat, strain Charles River CD (Sprague-Dawley), females, by gavage, site: gastric mucosa, lesion: carcinoid tumor, malignant, dosed 105 weeks, study length 105 weeks) was “negative (inactive)”; the carcinogen call (rat, strain Charles River CD (Sprague-Dawley), males, by gavage, site: gastric mucosa, lesion: carcinoid tumor, malignant, dosed 105 weeks, study length 105 weeks) was “negative (inactive)”.
For the compound `CC(=O)Nc1nnc(-c2ccc([N+](=O)[O-])o2)s1`, the TD50 was 6.9 mg/kg/day (mouse, strain Swiss, females, in feed, site: any site (literature study), lesion: several types, types named in the paper, dosed 46 weeks, study length 55 weeks); 6.74 mg/kg/day (mouse, strain Swiss, females, in feed, site: forestomach, lesion: several types, types named in the paper, dosed 46 weeks, study length 55 weeks); 104 mg/kg/day (mouse, strain Swiss, females, in feed, site: forestomach, lesion: squamous-cell carcinoma, dosed 46 weeks, study length 55 weeks); 14.1 mg/kg/day (mouse, strain Swiss, females, in feed, site: forestomach, lesion: squamous-cell papilloma, dosed 46 weeks, study length 55 weeks); 111 mg/kg/day (rat, strain Sprague-Dawley, females, in feed, site: all sites, lesion: lymphoblastic lymphoma, dosed 40 weeks, study length 59 weeks); 8.84 mg/kg/day (rat, strain Sprague-Dawley, females, in feed, site: forestomach, lesion: several types, types named in the paper, dosed 40 weeks, study length 59 weeks). In addition, the TD50 is 11.6 mg/kg/day (rat, strain Sprague-Dawley, females, in feed, site: forestomach, lesion: squamous-cell papilloma, dosed 40 weeks, study length 59 weeks); 18.6 mg/kg/day (rat, strain Sprague-Dawley, females, in feed, site: intestine, lesion: hemangioendothelial sarcoma, dosed 40 weeks, study length 59 weeks); 16.9 mg/kg/day (rat, strain Sprague-Dawley, females, in feed, site: kidney/pelvis, lesion: transitional-cell carcinoma, dosed 40 weeks, study length 59 weeks); 22.9 mg/kg/day (rat, strain Sprague-Dawley, females, in feed, site: liver, lesion: hemangioendothelial sarcoma, dosed 40 weeks, study length 59 weeks); 15.3 mg/kg/day (rat, strain Sprague-Dawley, females, in feed, site: lung, lesion: alveolar-cell carcinoma, dosed 40 weeks, study length 59 weeks); 52.3 mg/kg/day (rat, strain Sprague-Dawley, females, in feed, site: lung, lesion: hemangioendothelial sarcoma, dosed 40 weeks, study length 59 weeks). For the same compound, the TD50 reads like this: (rat, strain Sprague-Dawley, females, in feed, site: mammary gland, lesion: adenocarcinoma, dosed 40 weeks, study length 59 weeks) 37.7 mg/kg/day; (rat, strain Sprague-Dawley, females, in feed, site: mammary gland, lesion: several types, types named in the paper, dosed 40 weeks, study length 59 weeks) 43.3 mg/kg/day; (rat, strain Sprague-Dawley, females, in feed, site: pancreas, lesion: hemangioendothelial sarcoma, dosed 40 weeks, study length 59 weeks) 81.6 mg/kg/day; (rat, strain Sprague-Dawley, females, in feed, site: several sites, sites named in the paper, lesion: hemangioendothelial sarcoma, dosed 40 weeks, study length 59 weeks) 10.6 mg/kg/day; (rat, strain Sprague-Dawley, females, in feed, site: small intestine, lesion: adenocarcinoma, dosed 40 weeks, study length 59 weeks) 111 mg/kg/day; (rat, strain Sprague-Dawley, females, in feed, site: small intestine, lesion: leiomyosarcoma, dosed 40 weeks, study length 59 weeks) 111 mg/kg/day.
Take `CC1=NN(c2ccccc2)C(=O)C1`: the carcinogen call (mouse, strain B6C3F1, females, in feed, site: any site (literature study), lesion: several types, types named in the paper, dosed 102 weeks, study length 104 weeks) was “negative (inactive)”; the carcinogen call (mouse, strain B6C3F1, males, in feed, site: any site (literature study), lesion: several types, types named in the paper, dosed 102 weeks, study length 104 weeks) was “negative (inactive)”; the carcinogen call (rat, strain Fischer 344, females, in feed, site: any site (literature study), lesion: several types, types named in the paper, dosed 103 weeks, study length 105 weeks) was “negative (inactive)”; the carcinogen call (rat, strain Fischer 344, males, in feed, site: any site (literature study), lesion: several types, types named in the paper, dosed 103 weeks, study length 105 weeks) is “negative (inactive)”. Moreover, the TD50 (rat, strain Fischer 344, males, in feed, site: liver, lesion: hepatocellular adenoma + hepatocellular carcinoma + neoplastic nodule, dosed 103 weeks, study length 105 weeks) stood at 3700 mg/kg/day.
For `CCOc1ccc2c(c1)C(C)=CC(C)(C)N2`, the carcinogen call was “negative (inactive)” (rat, strain F344/DuCrj, males, in feed, site: esophagus, lesion: one or several types, types not named, dosed 52 weeks, study length 52 weeks); “negative (inactive)” (rat, strain F344/DuCrj, males, in feed, site: forestomach, lesion: one or several types, types not named, dosed 52 weeks, study length 52 weeks); “negative (inactive)” (rat, strain F344/DuCrj, males, in feed, site: liver, lesion: one or several types, types not named, dosed 52 weeks, study length 52 weeks); “negative (inactive)” (rat, strain Fischer 344, females, in feed, site: kidney, lesion: one or several types, types not named, dosed 58 weeks, study length 58 weeks); “negative (inactive)” (rat, strain Fischer 344, females, in feed, site: kidney, lesion: one or several types, types not named, dosed 78 weeks, study length 78 weeks); “negative (inactive)” (rat, strain Fischer 344, males, in feed, site: kidney, lesion: one or several types, types not named, dosed 58 weeks, study length 58 weeks). The carcinogen call (rat, strain Fischer 344, males, in feed, site: kidney, lesion: one or several types, types not named, dosed 78 weeks, study length 78 weeks) was “negative (inactive)”.
